Patent publication US20250223259A1, “PROTEASE INHIBITORS FOR TREATING OR PREVENTING CORONAVIRUS INFECTION” (Merck Sharp & Dohme LLC, priority 2022, published 2025)

target: SARS2 coronavirus 3CL protease (Severe acute respiratory syndrome coronavirus 2 (2019-nCoV) (SARS-CoV-2), UniProt P0DTD1); assay: SARS2 Coronavirus 3CL Protease Assay (FRET); assay type: biochemical; conditions: SARS2 3CLPro FRET assay; 5 nM enzyme, 30 min pre-incubation with compound, 15 uM peptide substrate, 4 h room temperature

Row | SMILES | IC50 [nM]
1 | COC(=O)N[C@H](C(=O)N1CC2CCC(C1C(=O)N[C@@H](CCC(C)(F)F)C(=O)C(=O)NC1CC1)C2(F)F)C(C)(C)C (single isomer, unassigned) [Example 99, methyl ((S)-1-((1(S or R),2(S or R),5(R or S))-2-(((S)-1-(cyclopropylamino)-6,6-difluoro-1,2-dioxoheptan-3-yl)carbamoyl)-8,8-difluoro-3-azabicyclo[3.2.1]octan-3-yl)-3,3-dimethyl-1-oxobutan-2-yl)carbamate] | 100
2 | [2H]C([2H])([2H])NC(=O)C(=O)[C@H](CCC(C)(F)F)NC(=O)C1CC(C(F)(F)F)CCN1C(=O)[C@@H](NC(=O)OC([2H])([2H])[2H])C(C)(C)C (single isomer, unassigned) [Example 100, methyl-d3 ((S)-1-((2(S or R),4(S or R))-2-(((S)-6,6-difluoro-1-((methyl-d3)amino)-1,2-dioxoheptan-3-yl)carbamoyl)-4-(trifluoromethyl)piperidin-1-yl)-3,3-dimethyl-1-oxobutan-2-yl)carbamate] | 14
3 | CNC(=O)C(=O)[C@H](CCC(C)(F)F)NC(=O)[C@@H]1CC2(CCC2(F)F)CN1C(=O)[C@@H](NC(=O)OC)C(C)(C)C (single isomer, unassigned) [Example 103, methyl ((S)-1-((4(S or R),7S)-7-(((S)-6,6-difluoro-1-(methylamino)-1,2-dioxoheptan-3-yl)carbamoyl)-1,1-difluoro-6-azaspiro[3.4]octan-6-yl)-3,3-dimethyl-1-oxobutan-2-yl)carbamat] | 32
4 | CNC(=O)C(=O)[C@H](CCC(C)(F)F)NC(=O)C1C2CC(F)(F)CC2CN1C(=O)[C@@H](NC(=O)OC)C(C)(C)C (single isomer, unassigned) [Example 105, methyl ((S)-1-((1S,3aR,6aS or 1R,3aS,6aR or 1S,3aS,6aR or 1R,3aR,6aS)-1-(((S)-6,6-difluoro-1-(methylamino)-1,2-dioxoheptan-3-yl)carbamoyl)-5,5-difluorohexahydrocyclopenta[c]pyrrol-2(1H)-yl)-3,3-dimethyl-1-oxobutan-2-yl)carbamate] | 11
5 | COC(=O)N[C@H](C(=O)N1C[C@H]2[C@@H](C1C(=O)N[C@@H](CCC(C)(F)F)C(=O)C(=O)NC1CC1)C2(Cl)Cl)C(C)(C)C (single isomer, unassigned) [Example 106, methyl ((S)-1-((1S,2(S or R),5R)-6,6-dichloro-2-(((S)-1-(cyclopropylamino)-6,6-difluoro-1,2-dioxoheptan-3-yl)carbamoyl)-3-azabicyclo[3.1.0]hexan-3-yl)-3,3-dimethyl-1-oxobutan-2-yl)carbamate] | 8
6 | CNC(=O)C(=O)[C@H](CCC(C)(F)F)NC(=O)C1C(C2CC2C)CCN1C(=O)[C@@H](NC(=O)OC)C(C)(C)C (single isomer, unassigned) [Example 107, methyl ((S)-1-((2(S or R),3(S or R))-2-(((S)-6,6-difluoro-1-(methylamino)-1,2-dioxoheptan-3-yl)carbamoyl)-3-((1(S or R),2(R or S))-2-methylcyclopropyl)pyrrolidin-1-yl)-3,3-dimethyl-1-oxobutan-2-yl)carbamate] | 14
7 | COC(=O)N[C@H](C(=O)N1CCC(C(F)F)CC1C(=O)N[C@@H](CCC(C)(F)F)C(=O)C(=O)NC1CC1)C(C)(C)C (single isomer, unassigned) [Example 108, methyl ((S)-1-((2(S or R),4(R or S)-2-(((S)-1-(cyclopropylamino)-6,6-difluoro-1,2-dioxoheptan-3-yl)carbamoyl)-4-(difluoromethyl)piperidin-1-yl)-3,3-dimethyl-1-oxobutan-2-yl)carbamate] | 22
8 | COC(=O)N[C@H](C(=O)N1CCC(OC(F)F)CC1C(=O)N[C@@H](CCC(C)(F)F)C(=O)C(=O)NC1CC1)C(C)(C)C (single isomer, unassigned) [Example 109, methyl ((S)-1-((2R,4R or 2S,4S)-2-(((S)-1-(cyclopropylamino)-6,6-difluoro-1,2-dioxoheptan-3-yl)carbamoyl)-4-(difluoromethoxy)piperidin-1-yl)-3,3-dimethyl-1-oxobutan-2-yl)carbamate] | 50
9 | CNC(=O)C(=O)[C@H](CCC(C)(F)F)NC(=O)C1CCCC(C)N1C(=O)[C@@H](NC(=O)OC)C(C)(C)C (single isomer, unassigned) [Example 110, methyl ((S)-1-((2S,6S or 2R,6R)-2-(((S)-6,6-difluoro-1-(methylamino)-1,2-dioxoheptan-3-yl)carbamoyl)-6-methylpiperidin-1-yl)-3,3-dimethyl-1-oxobutan-2-yl)carbamate] | 61
10 | COC(=O)N[C@H](C(=O)N1CCC(OC(F)(F)F)CC1C(=O)N[C@@H](CCC(C)(F)F)C(=O)C(=O)NC1CC1)C(C)(C)C (single isomer, unassigned) [Example 112, methyl ((S)-1-((2S,4S or 2R,4R)-2-(((S)-1-(cyclopropylamino)-6,6-difluoro-1,2-dioxoheptan-3-yl)carbamoyl)-4-(trifluoromethoxy)piperidin-1-yl)-3,3-dimethyl-1-oxobutan-2-yl)carbamate] | 146
11 | CNC(=O)C(=O)[C@H](CCC(C)(F)F)NC(=O)C1CC(C(F)(F)F)CCN1C(=O)C(NC(=O)OC)C12CC(F)(C1)C2 (single isomer, unassigned) [Example 115, methyl ((R or S)-2-((2(S or R),4(R or S))-2-(((S)-6,6-difluoro-1-(methylamino)-1,2-dioxoheptan-3-yl)carbamoyl)-4-(trifluoromethyl)piperidin-1-yl)-1-(3-fluorobicyclo[1.1.1]pentan-1-yl)-2-oxoethyl)carbamate] | 35
12 | CNC(=O)C(=O)[C@H](CCC(C)(F)F)NC(=O)[C@@H]1[C@H]2CCC[C@H]2CN1C(=O)C(NC(=O)OC)C1CC(F)(F)C1 (single isomer, unassigned) [Example 116, methyl ((S or R)-2-((1S,3aR,6aS)-1-(((S)-6,6-difluoro-1-(methylamino)-1,2-dioxoheptan-3-yl)carbamoyl)hexahydrocyclopenta[c]pyrrol-2(1H)-yl)-1-(3,3-difluorocyclobutyl)-2-oxoethyl)carbamate] | 16
13 | CC(C)OC(=O)N[C@H](C(=O)N1CC2(CCCCC2)C[C@H]1C(=O)N[C@@H](CCC(C)(F)F)C(=O)C(=O)NC1CC1)C(C)(C)C [Example 4, Isopropyl ((S)-1-((S)-3-(((S)-1-(cyclopropylamino)-6,6-difluoro-1,2-dioxoheptan-3-yl)carbamoyl)-2-azaspiro[4.5]decan-2-yl)-3,3-dimethyl-1-oxobutan-2-yl)carbamate] | 60
14 | CC(F)(F)CC[C@H](NC(=O)[C@@H]1CC2(CCCCC2)CN1C(=O)[C@@H](NC(=O)OC1CCCC1)C(C)(C)C)C(=O)C(=O)NC1CC1 [Example 5, Cyclopentyl ((S)-1-((S)-3-(((S)-1-(cyclopropylamino)-6,6-difluoro-1,2-dioxoheptan-3-yl)carbamoyl)-2-azaspiro[4.5]decan-2-yl)-3,3-dimethyl-1-oxobutan-2-yl)carbamate] | 81
15 | COC(=O)N[C@H](C(=O)N1C[C@H]2[C@@H]([C@H]1C(=O)N[C@@H](CCC(C)(F)F)C(=O)C(=O)NC1CC1)C2(C)C)C(C)(C)C [Example 6, Methyl ((S)-1-((1R,2S,5S)-2-(((S)-1-(cyclopropylamino)-6,6-difluoro-1,2-dioxoheptan-3-yl)carbamoyl)-6,6-dimethyl-3-azabicyclo[3.1.0]hexan-3-yl)-3,3-dimethyl-1-oxobutan-2-yl)carbamate] | 17
16 | COC(=O)N[C@H](C(=O)N1CC2(CCCCC2)C[C@H]1C(=O)N[C@@H](CCC(C)(F)F)C(=O)C(=O)NCc1ccccc1)C(C)(C)C [Example 7, Methyl ((S)-1-((S)-3-(((S)-1-(benzylamino)-6,6-difluoro-1,2-dioxoheptan-3-yl)carbamoyl)-2-azaspiro[4.5]decan-2-yl)-3,3-dimethyl-1-oxobutan-2-yl)carbamate] | 11
17 | CCNC(=O)C(=O)[C@H](CCC(C)(F)F)NC(=O)[C@@H]1CC2(CCCCC2)CN1C(=O)[C@@H](NC(=O)OC)C(C)(C)C [Example 8, Methyl ((S)-1-((S)-3-(((S)-1-(ethylamino)-6,6-difluoro-1,2-dioxoheptan-3-yl)carbamoyl)-2-azaspiro[4.5]decan-2-yl)-3,3-dimethyl-1-oxobutan-2-yl)carbamate] | 18
18 | COC(=O)N[C@H](C(=O)N1CC2(CCCCC2)C[C@H]1C(=O)N[C@@H](CCC(C)(F)F)C(=O)C(=O)NCC(C)C)C(C)(C)C [Example 9, Methyl ((S)-1-((S)-3-(((S)-6,6-difluoro-1-(isobutylamino)-1,2-dioxoheptan-3-yl)carbamoyl)-2-azaspiro[4.5]decan-2-yl)-3,3-dimethyl-1-oxobutan-2-yl)carbamate] | 21
19 | COC(=O)N[C@H](C(=O)N1CC2(CCCC2)C[C@H]1C(=O)N[C@@H](CCC(C)(F)F)C(=O)C(=O)NC1CC1)C(C)(C)C [Example 10, Methyl ((S)-1-((S)-3-(((S)-1-(cyclopropylamino)-6,6-difluoro-1,2-dioxoheptan-3-yl)carbamoyl)-2-azaspiro[4.4]nonan-2-yl)-3,3-dimethyl-1-oxobutan-2-yl)carbamate] | 26
20 | COC(=O)N[C@H](C(=O)N1CC2(CCCCC2)C[C@H]1C(=O)N[C@@H](CCC(C)(F)F)C(=O)C(=O)Nc1ccccc1C)C(C)(C)C [Example 12, Methyl ((S)-1-((S)-3-(((S)-6,6-difluoro-1,2-dioxo-1-(o-tolylamino)heptan-3-yl)carbamoyl)-2-azaspiro[4.5]decan-2-yl)-3,3-dimethyl-1-oxobutan-2-yl)carbamate] | 41
21 | COC(=O)N[C@H](C(=O)N1CC2(CCCCC2)C[C@H]1C(=O)N[C@@H](CCC(C)(F)F)C(=O)C(=O)NC(C)C)C(C)(C)C [Example 13, Methyl ((S)-1-((S)-3-(((S)-6,6-difluoro-1-(isopropylamino)-1,2-dioxoheptan-3-yl)carbamoyl)-2-azaspiro[4.5]decan-2-yl)-3,3-dimethyl-1-oxobutan-2-yl)carbamate] | 49
